Measured values as given in patent US20220192984A1, “PHARMACEUTICAL COMPOSITIONS COMPRISING OTIC THERAPEUTIC AGENTS AND RELATED METHODS” (Frequency Therapeutics, Inc., priority 2018, published 2022).
Where two headings read alike, the source gives them in different places. Each block holds one molecule with its values, some of them ahead of it.

Key:
Lgr5+ cells = test: Lgr5+ Assay (Lgr5+ cell assay in vitro); format: cell-based
[1] = Perilymph Conc. listed for agents (Tables 14-25)
[2] = cited from earlier work
LSD1 [3] = target: T1, LSD1 (Homo sapiens, UniProt O60341); settings: Table 18, LSD1; read-out: pKi or IC50 (converted); cited from earlier work
EZH2 [4] = target: T2, EZH2 (Homo sapiens, UniProt Q15910); settings: Table 19, EZH2; read-out: pKi or IC50 (converted); cited from earlier work
gamma secretase = settings: cited from earlier work; for Lit cell conc: Table 23
LSD1 [5] = target: T1, LSD1; settings: Table 18, cited from earlier work
KDM = settings: cited from earlier work
[6] = Reconstitution time of lyophilized compositions (Tables E, 28, 35); format: physicochemical; settings: for Reconstitution time (minutes) water + DMSO / Reconstitution time (minutes) with water: lyophilized 16.15% P407 with salt at 533.25 mM; for Reconstitution time (minutes) water + DMSO: reconstituted with Diluent ([…] DMSO in water); for Reconstitution time (minutes) with water: reconstituted with water; for reconstitution time of lyophilized poloxamer with added organic acid salt: poloxamer 16.15%, salt 533.25 mM
Protocol: Diluent 1, 0.85 mL+lyophilized cake. […] Gentle tapping on the exterior of the vessel to help the cake dissolve in the Diluent may be required while keeping it in fridge (or ice bath). To avoid degradation of the composition, minimize stirring and/or vortexing.
Diluent 1, 0.95 mL+Placebo cake: Using a syringe, add the Diluent to the Placebo cake, and rest in a fridge or ice bath (2-8° C.) for 60 minutes or until clear solution is formed. Gentle tapping on the exterior of the vessel to help the cake dissolve in the Diluent may be required while keeping it in fridge (or ice bath). To avoid degradation of the composition, minimize stirring and/or vortexing.
Powder P407 (i.e. non-lyophilized) can be obtained from BASF.
Reconstitution of lyophilized P407 (Placebo) and powder P407 was done using 850 μL Diluent (see above for example preparations of a Diluent) in a vial.
Therefore, to probe the effect of salts other than sodium valproate on reconstitution time, a poloxamer solution at 16.15% concentration either alone or including a salt (e.g. an inorganic salt or organic acid salt) at a concentration of 533.25 mM, was lyophilized. The lyophilized material was then reconstituted using Diluent for reconstitution (6.4% DMSO by wt. % in water) or with water.
Building on the results of Examples 14 to 16, further lyophilized compositions were manufactured and had their reconstitution times evaluated. […] The further lyophilized compositions were made in accordance with Example 10, and reconstituted in accordance with Example 12.

EZH2 [7] = target: T2, EZH2; settings: Table 19; cited from earlier work
[8] = Table 23, Aβ40, read-out: Lit cell conc IC50, Aβ40
[9] = Table 23, Aβ42, read-out: Lit cell conc IC50, Aβ42
[10] = Table 21, KDM 5, read-out: Select KDM 5

T2 sequence (Q15910 whole entry, species assumed): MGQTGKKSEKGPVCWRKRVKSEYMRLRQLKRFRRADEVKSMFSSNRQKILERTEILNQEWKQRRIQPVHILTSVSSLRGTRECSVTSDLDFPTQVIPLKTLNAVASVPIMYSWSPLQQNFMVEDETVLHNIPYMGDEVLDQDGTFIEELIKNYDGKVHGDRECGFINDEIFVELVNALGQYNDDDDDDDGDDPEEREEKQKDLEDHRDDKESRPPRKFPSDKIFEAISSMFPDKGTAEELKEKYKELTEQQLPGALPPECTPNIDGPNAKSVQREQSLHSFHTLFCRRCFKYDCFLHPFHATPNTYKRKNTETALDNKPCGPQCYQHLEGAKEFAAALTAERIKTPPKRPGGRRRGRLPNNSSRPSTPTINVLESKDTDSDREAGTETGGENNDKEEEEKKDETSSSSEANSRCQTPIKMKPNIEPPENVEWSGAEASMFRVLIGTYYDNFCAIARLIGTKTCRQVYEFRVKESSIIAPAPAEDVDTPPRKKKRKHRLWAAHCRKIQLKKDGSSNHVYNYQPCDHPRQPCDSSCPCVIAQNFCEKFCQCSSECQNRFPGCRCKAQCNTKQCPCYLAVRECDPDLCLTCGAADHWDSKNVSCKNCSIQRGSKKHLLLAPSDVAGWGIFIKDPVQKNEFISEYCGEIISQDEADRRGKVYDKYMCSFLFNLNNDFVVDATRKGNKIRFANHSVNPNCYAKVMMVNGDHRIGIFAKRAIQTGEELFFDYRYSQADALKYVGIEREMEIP
T2 sequence (O75530 whole entry partner, species assumed): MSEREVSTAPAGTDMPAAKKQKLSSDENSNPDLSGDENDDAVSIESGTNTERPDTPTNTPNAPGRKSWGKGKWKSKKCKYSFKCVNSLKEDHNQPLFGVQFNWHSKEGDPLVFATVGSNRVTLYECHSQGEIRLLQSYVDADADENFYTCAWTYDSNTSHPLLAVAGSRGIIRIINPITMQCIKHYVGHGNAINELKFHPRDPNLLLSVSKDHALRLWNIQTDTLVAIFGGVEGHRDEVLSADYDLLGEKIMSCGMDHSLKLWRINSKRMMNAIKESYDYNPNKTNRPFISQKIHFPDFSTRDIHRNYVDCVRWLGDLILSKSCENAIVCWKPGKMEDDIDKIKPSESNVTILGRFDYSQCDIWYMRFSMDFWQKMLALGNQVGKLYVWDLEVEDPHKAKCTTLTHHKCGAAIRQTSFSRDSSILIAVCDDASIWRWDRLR
T2 sequence (Q15022 whole entry partner, species assumed): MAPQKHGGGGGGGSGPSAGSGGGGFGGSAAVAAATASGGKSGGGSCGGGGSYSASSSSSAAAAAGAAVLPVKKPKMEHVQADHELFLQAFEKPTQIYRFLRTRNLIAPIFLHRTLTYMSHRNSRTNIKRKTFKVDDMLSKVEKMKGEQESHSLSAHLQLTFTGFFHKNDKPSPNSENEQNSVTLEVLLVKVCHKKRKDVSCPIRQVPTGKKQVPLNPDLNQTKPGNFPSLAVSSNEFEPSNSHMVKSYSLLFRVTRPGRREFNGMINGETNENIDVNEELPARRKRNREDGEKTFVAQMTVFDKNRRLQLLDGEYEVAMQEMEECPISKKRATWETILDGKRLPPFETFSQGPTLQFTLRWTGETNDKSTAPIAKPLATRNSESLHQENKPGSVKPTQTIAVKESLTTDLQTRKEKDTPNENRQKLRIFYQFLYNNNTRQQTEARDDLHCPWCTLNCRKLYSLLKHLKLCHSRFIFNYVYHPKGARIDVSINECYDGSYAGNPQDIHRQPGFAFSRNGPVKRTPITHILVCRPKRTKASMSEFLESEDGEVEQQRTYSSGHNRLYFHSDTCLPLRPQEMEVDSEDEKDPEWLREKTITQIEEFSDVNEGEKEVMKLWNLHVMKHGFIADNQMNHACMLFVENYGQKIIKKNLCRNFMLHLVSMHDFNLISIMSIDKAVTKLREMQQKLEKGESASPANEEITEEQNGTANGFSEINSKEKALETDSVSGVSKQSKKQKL

Perilymph Conc ([1]; Table 21): 1 to 3 µM
Molecule: O=C(N/N=C/c1c(O)ccc2ccccc12)c1ccncc1 [AS 8351]
Lgr5+ Assay (Lgr5+ cells; Table 21): 1 to 3 µM | Human In Vivo Conc ([2]; Table 21): 1 to 3 µM

Molecule: COc1c(O)cc2oc3cc(O)c(CC=C(C)C)c(O)c3c(=O)c2c1CC=C(C)C [Alpha-mangostin]
IC50 (LSD1 [3]): 2800 nM

Molecule: COc1ccc(CCN2CCC(Nc3nc4ccccc4n3Cc3ccc(F)cc3)CC2)cc1 [Astemizole]
IC50 (EZH2 [4]): 94000 nM

Molecule: NC(=O)[C@@H](CCC(F)(F)F)N(Cc1ccc(-c2ncon2)cc1F)S(=O)(=O)c1ccc(Cl)cc1 [Avagacestat/BMS-708163]
IC50 (gamma secretase; [8]): 0.3 nM | IC50 (gamma secretase; [9]): 0.27 nM

Molecule: C[C@H](c1ccc(F)cc1CCCC(=O)O)N(c1cc(F)ccc1F)S(=O)(=O)c1ccc(Cl)cc1 [BMS 299897]
IC50 (gamma secretase; [8]): 7.4 nM | IC50 (gamma secretase; [9]): 7.9 nM

Molecule: COc1nc(-c2cc(C)c(N[C@@H](C)c3ccc(F)cc3)nn2)ccc1-n1cnc(C)c1 [BPN-15606]
IC50 (gamma secretase; [8]): 17 nM | IC50 (gamma secretase; [9]): 7 nM

Molecule: O=S(=O)(N[C@H](CO)C(C(F)(F)F)C(F)(F)F)c1ccc(Cl)s1 [Begacestat/GSI-953]
EC50 (gamma secretase; Table 23, Aβ40, in cells, read-out: Lit cell conc EC50, lowers Aβ40): 14.8 nM | EC50 (gamma secretase; Table 23, Aβ42, in cells, read-out: Lit cell conc EC50, lowers Aβ42): 12.4 nM

Molecule: COC(=O)c1cc(CN2CCN(C(=N)N)CC2)cc(C(=O)N2CCN(C(=O)c3ccc(C(=N)N)cc3)CC2)c1 [CBB-1007]
Lgr5+ Assay (Lgr5+ cells; Table 18, result in words): Activity | IC50 (LSD1 [3]): 2100 nM | IC50 (LSD1 [5]; read-out: Literat. Cell IC50): < 5000 nM

Molecule: O=C(O)C1(c2ccc(-c3ccc(Cl)c(Cl)c3)c(F)c2)CC1 [CHF5074]
IC50 (gamma secretase; [8]): 18400 nM

Molecule: COc1cc(C)[nH]c(=O)c1CNC(=O)c1c(C)n([C@H](C)C2CCN(CC(F)(F)F)CC2)c2ccccc12 [CPI-1205]
Perilymph Conc ([1]; Table 19): 0.01 to 1 µM | Human In Vivo Conc ([2]; Table 19): 0.025 to 0.25 µM

Molecule: CCc1c(-c2ccccc2C)nc2c(C#N)c[nH]n2c1=O [CPI-4203]
IC50 (KDM; [10]): 1100 nM

Molecule: [Ca+2].[Cl-].[Cl-] [Calcium Chloride]
Reconstitution time (minutes) water + DMSO [6]: plugs remain at end of 180 minutes | Reconstitution time (minutes) with water [6]: plugs remain at end of 180 minutes

Molecule: CC(C(=O)O)c1ccc2c(c1)[nH]c1ccc(Cl)cc12 (stereo not shown) [Carprofen]
Lit cell conc (gamma secretase): 76 µM

Molecule: C[C@H](NC(=O)CCC(F)(F)F)C(=O)N[C@@H]1C(=O)N(CCO)c2ncccc2-c2ccccc21 [Crenigacestat LY 3039478]
IC50 (gamma secretase; Table 23, in most of the tumor cell lines, read-out: Lit cell conc IC50): ~1 nM

Molecule: C[C@H](NC(=O)Cc1cc(F)cc(F)c1)C(=O)N[C@H](C(=O)OC(C)(C)C)c1ccccc1 [DAPT]
IC50 (gamma secretase; Table 23, neuronal culture, Aβ42, read-out: Lit cell conc IC50, Aβ42): 200 nM | IC50 (gamma secretase; Table 23, neuronal culture, total Aβ, read-out: Lit cell conc IC50, total Aβ): 115 nM

Molecule: Nc1nccc2c1ncn2C1C=C(CO)C(O)C1O (stereo not shown) [DZNep]
Lgr5+ Assay (Lgr5+ cells; Table 19, result in words): Activity | Lit Cell Poten (EZH2 [7]): 1000 nM

Molecule: CCc1c(N(CC)C2CCOCC2)cc2oc(C3CCN(C(C)C)CC3)cc2c1C(=O)NCc1c(C)cc(C)[nH]c1=O [EBI-2511]
IC50 (EZH2 [4]): 4 nM

Molecule: CS(=O)(=O)c1ccc(-c2cnc(NCc3ccco3)n3cnnc23)cc1 [EED226]
Lgr5+ Assay (Lgr5+ cells; Table 19, result in words): Activity

Molecule: CCN(c1cc(C#CCN2CCOCC2)cc(C(=O)NCc2c(C)cc(C)[nH]c2=O)c1C)[C@H]1CC[C@H](N(C)CCOC)CC1 [EPZ-011989]
Lit Cell Poten (EZH2 [7]): 94 nM

Molecule: CCOc1ccc2nc3cc(N)ccc3c(N)c2c1 [Ethacridine, reference compound]
Lgr5+ Assay (Lgr5+ cells; Table 22, result in words): Activity

Molecule: CC1=C(C(=O)OC2CCCCC2)C(c2ccc([N+](=O)[O-])cc2)C2=C(CC(C)(C)CC2=O)N1 (stereo not shown) [FLI-06]
IC50 (LSD1 [3]): 92 nM

Molecule: CCCc1cc(C)[nH]c(=O)c1CNC(=O)c1cc(-c2ccnc(N3CCN(C)CC3)c2)cc2c1cnn2C(C)C [GSK343]
Lit Cell Poten (EZH2 [7]): 174 nM

Molecule: CCOC(=O)CCNc1cc(N2CCc3ccccc3CC2)nc(-c2ccccn2)n1 [GSK-J4]
IC50 (KDM; [10]): 170 nM | IC50 (KDM; Table 21, KDM 6, read-out: Select KDM 6): 28 nM

Molecule: c1ccc([C@@H]2C[C@H]2NC2CCNCC2)cc1 [GSK-LSD1]
Lgr5+ Assay (Lgr5+ cells; Table 18, lower end of concentration range): ≥ 4 nM- | Perilymph Conc ([1]; Table 18, lower end of range): ≥ 4 nM- | Perilymph Conc ([1]; Table 18, range or its upper end): ≤ 50 µM | Human Plasma Conc ([2]; Table 18): 1 to 100 nM

Molecule: NO [Hydroxylamine]
IC50 (LSD1 [3]): 121 nM

Perilymph Conc ([1]; Table 22, listed concentration, no test described): 1.1 to 30 µM
Molecule: C=CCNc1nc(N)c(C(=O)c2ccc(Cl)s2)s1 [IBS008738, reference compound]
Lgr5+ Assay (Lgr5+ cells; Table 22): 1.1 to 30 µM

Molecule: COc1ccc2c(c1)c(CC(=O)O)c(C)n2C(=O)c1ccc(Cl)cc1 [Indomethacin]
Lit cell conc (gamma secretase): 25 to 50 µM

Molecule: Clc1ccc(N/N=C(\c2ccccc2)c2ccccn2)nc1 [JIB-04]
IC50 (KDM; [10]): 220 nM

Molecule: COc1oc(=O)c2cc(N)ccc2c1Cl [JLK 6]
Lit cell conc (gamma secretase): 30 µM

Molecule: CC(C)C[C@H](C(=O)O)c1cc(-c2ccc(C(F)(F)F)cc2)cc(-c2ccc(C(F)(F)F)cc2)c1 [JNJ-40418677]
Lit cell conc (gamma secretase): 0.18 to 0.2 µM

Molecule: CN(C)CCCNc1nc(NC2CCN(Cc3ccccc3)CC2)c2ccccc2n1 [MC2694]
IC50 (LSD1 [3]): 1000 nM

Molecule: O=C(O)CC[C@H]1CC[C@@](c2cc(F)ccc2F)(S(=O)(=O)c2ccc(Cl)cc2)CC1 [MK-0572]
IC50 (gamma secretase; Table 23, SH-SY5Y cells, read-out: Lit cell conc IC50): 5 nM

Molecule: O=S(=O)(NC1CCC(c2cc(F)ccc2F)(S(=O)(=O)c2ccc(Cl)cc2)CC1)C(F)(F)F (stereo not shown) [MRK 560]
Lit cell conc (gamma secretase): 0.00065 µM

Molecule: [Cl-].[Cl-].[Mg+2] [Magnesium Chloride]
Reconstitution time (minutes) water + DMSO [6]: 180 min | Reconstitution time (minutes) with water [6]: 180 min

Molecule: CCc1cc(Nc2nc(-c3ccc(-n4cnc(C)c4)c(F)c3)cs2)c(C)cc1C [NGP 555]
Lit cell conc (gamma secretase): 0.01 µM

Molecule: N[C@H]1CC[C@H](N[C@@H]2C[C@H]2c2ccccc2)CC1 [ORY-1001]
Lgr5+ Assay (Lgr5+ cells; Table 18, result in words): Activity

Molecule: C=CC(=O)Nc1cc(Nc2nccc(-c3cn(C)c4ccccc34)n2)c(OC)cc1N(C)CCN(C)C [Osimertinib]
Literat. Cell (LSD1 [5]): 43 nM

Molecule: [Cl-].[K+] [Potassium Chloride]
Reconstitution time (minutes) water + DMSO [6]: 168 min | Reconstitution time (minutes) with water [6]: 180 min

Molecule: O=P(O)(O)O [Potassium Phosphate]
Reconstitution time (minutes) water + DMSO [6]: undissolved at end of 180 minutes | Reconstitution time (minutes) with water [6]: undissolved at end of 180 minutes

Molecule: C/C(=N\NC(=O)c1cccc(S(=O)(=O)N2CCOCC2)c1)c1cc(Cl)ccc1O [SP-2509]
Lgr5+ Assay (Lgr5+ cells; Table 18, result in words): Activity | IC50 (LSD1 [3]): 13 nM | Literat. Cell (LSD1 [5]): 350 to 650 nM

Molecule: CC(C)[C@H](O)C(=O)N[C@@H](C)C(=O)N[C@@H]1C(=O)N(C)CCc2ccccc21 [Semagacestat LY 450139]
IC50 (gamma secretase; Table 23, Aβ38, read-out: Lit cell conc IC50, Aβ38): 12 nM | IC50 (gamma secretase; [8]): 12.1 nM | IC50 (gamma secretase; [9]): 10.9 nM

reconstitution time of lyophilized poloxamer with added organic acid salt [6]: 420 min
Molecule: C#CCC(CCCCCC)C(=O)[O-].[Na+] (stereo not shown) [Sodium 2-(prop-2-yn-1-yl) octanoate, reference compound]

Reconstitution time (minutes) water + DMSO [6]: 4 min | Reconstitution time (minutes) with water [6]: 4 min
Molecule: C#CCC(CCCCCC)C(=O)[O-].[Na+] (stereo not drawn) [Sodium 2-(prop-2-yn-l-yl) Octanoate]

Reconstitution time (minutes) water + DMSO [6]: undissolved at end of 180 minutes | Reconstitution time (minutes) with water [6]: undissolved at end of 180 minutes
Molecule: O=C([O-])O.[Na+] [Sodium Bicarbonate]

Molecule: [Cl-].[Na+] [Sodium Chloride]
Reconstitution time (minutes) water + DMSO [6]: 150 min | Reconstitution time (minutes) with water [6]: 150 min

Molecule: CSc1ccc(/C=C2/C(C)=C(CC(=O)O)c3cc(F)ccc32)cc1 [Suldinac sulfide]
Lit cell conc (gamma secretase): 34 µM

Molecule: Cc1coc2c1C(=O)C(=O)c1c-2ccc2c1CC[C@@H](O)[C@]2(C)O [Tanshindiol C]
IC50 (EZH2 [4]): 550 nM

Perilymph Conc ([1]; Table 19): 0.01 to 1 µM
Molecule: Cc1cc(C)c(CNC(=O)c2cc(Cl)c3c(c2C)O[C@@](C)([C@H]2CC[C@H](N(C)C)CC2)O3)c(=O)[nH]1 [Valemetostat]

Molecule: Magnesium divalproate [reference compound]
Reconstitution time (minutes) water + DMSO [6]: 14 min | Reconstitution time (minutes) with water [6]: 14 min | reconstitution time of lyophilized poloxamer with added organic acid salt [6]: 420 min

Molecule: Tanshindiol B
IC50 (EZH2 [4]): 520 nM
